Among the data in ChEMBL document CHEMBL1697681, “Predicting phospholipidosis using machine learning” (Mol Pharm, 2010) are Phospholipidosis values, retold here.

This data set concerns Phospholipidosis. Put plainly: Literature-mined public compounds from Lowe et al phospholipidosis modelling dataset.
Regarding `CC(C)OC(=O)C(C)(C)Oc1ccc(C(=O)c2ccc(Cl)cc2)cc1` [FENOFIBRATE], the Phospholipidosis result is reported as “Negative”. `O=C(NCC1CCCCN1)c1cc(OCC(F)(F)F)ccc1OCC(F)(F)F` (stereo not given) [FLECAINIDE]: the Phospholipidosis entry is given as “Negative”. On to `CNCCC(Oc1ccc(C(F)(F)F)cc1)c1ccccc1` (stereo not given) [FLUOXETINE], for which the Phospholipidosis entry is recorded as “Positive”. As for `CC(C)C(=O)Nc1ccc([N+](=O)[O-])c(C(F)(F)F)c1` [FLUTAMIDE], the Phospholipidosis entry is listed as “Negative”. On to `COCCCC/C(=N\OCCN)c1ccc(C(F)(F)F)cc1` [FLUVOXAMINE], for which the Phospholipidosis result is “Positive”. `NS(=O)(=O)c1cc(C(=O)O)c(NCc2ccco2)cc1Cl` [FUROSEMIDE]: the Phospholipidosis entry was “Negative”. To `Cc1ccc(C)c(OCCCC(C)(C)C(=O)O)c1` [GEMFIBROZIL] belongs “Negative”. For `CN[C@@H]1[C@@H](O)[C@@H](O[C@@H]2[C@@H](O)[C@H](O[C@H]3O[C@H]([C@@H](C)NC)CC[C@H]3N)[C@@H](N)C[C@H]2N)OC[C@]1(C)O` [GENTAMICIN C1], the Phospholipidosis result is listed as “Positive”. The same measure for `CN[C@@H]1[C@@H](O)[C@@H](O[C@@H]2[C@@H](O)[C@H](O[C@H]3O[C@H](C(C)N)CC[C@H]3N)[C@@H](N)C[C@H]2N)OC[C@]1(C)O` (stereo not given in full) [GENTAMICIN C2]: “Positive”. Turning to `N[C@H]1C(O)O[C@H](CO)[C@@H](O)[C@@H]1O` (stereo not given in full) [GLUCOSAMINE], the Phospholipidosis result is “Negative”. Regarding `O=C(CCCN1CCC(O)(c2ccc(Cl)cc2)CC1)c1ccc(F)cc1` [HALOPERIDOL], the Phospholipidosis result is “Positive”. To `CN1CCCN(C(c2ccccc2)c2ccc(Cl)cc2)CC1` (stereo not given) [HOMOCHLORCYCLIZINE] belongs “Positive”; to `NN` [HYDRAZINE], “Negative”. On to `NC(=O)NO` [HYDROXYUREA], for which the Phospholipidosis entry was “Negative”. On to `OCCOCCN1CCN(C(c2ccccc2)c2ccc(Cl)cc2)CC1` (stereo not given) [HYDROXYZINE], for which the Phospholipidosis result is reported as “Positive”. As for `CN(C)CCCN1c2ccccc2CCc2ccccc21` [IMIPRAMINE], the Phospholipidosis entry is on record as “Positive”. `O=C(NC1CCN(CCc2c[nH]c3ccccc23)CC1)c1ccccc1` [INDORAMIN]: the Phospholipidosis entry is “Positive”. As to `CC(=O)N1CCN(c2ccc(OCC3COC(Cn4ccnc4)(c4ccc(Cl)cc4Cl)O3)cc2)CC1` (stereo not given) [KETOCONAZOLE], the Phospholipidosis result was “Positive”.

With `CC(CCc1ccccc1)NCC(O)c1ccc(O)c(C(N)=O)c1` (stereo not given) [LABETALOL], the Phospholipidosis entry is reported as “Positive”.

In the case of `C[C@H]1COc2c(N3CCN(C)CC3)c(F)cc3c(=O)c(C(=O)O)cn1c23.C[C@H]1COc2c(N3CCN(C)CC3)c(F)cc3c(=O)c(C(=O)O)cn1c23.O` [LEVOFLOXACIN], the Phospholipidosis result was “Negative”. As to `CCN(CC)CC(=O)Nc1c(C)cccc1C` [LIDOCAINE], the Phospholipidosis entry is “Positive”.

For the compound `CCOC(=O)N1CCC(=C2c3ccc(Cl)cc3CCc3cccnc32)CC1` [LORATADINE], the Phospholipidosis result is listed as “Positive”.

With `CCN(CC)C(=O)[C@@H]1C=C2c3cccc4[nH]cc(c34)C[C@H]2N(C)C1` [LYSERGIDE], the Phospholipidosis result is “Positive”. Turning to `CNCCCC12CCC(c3ccccc31)c1ccccc12` [MAPROTILINE], the Phospholipidosis result is recorded as “Positive”. Consider `Cc1cccc(CN2CCN(C(c3ccccc3)c3ccc(Cl)cc3)CC2)c1` (stereo not given) [MECLIZINE], for which the Phospholipidosis result is “Positive”. Regarding `CC12CC3CC(C)(C1)CC(N)(C3)C2` [MEMANTINE], the Phospholipidosis entry was “Positive”.

For the compound `CC1=CC(=O)c2ccccc2C1=O` [MENADIONE], the Phospholipidosis result was “Negative”. With `CN1CCCCC1CCN1c2ccccc2Sc2ccc([S+](C)[O-])cc21` (stereo not given) [MESORIDAZINE], the Phospholipidosis entry is on record as “Positive”.

Take `CN(C)C(=N)N=C(N)N` [METFORMIN]: the Phospholipidosis result was “Negative”. With `CCC(=O)C(CC(C)N(C)C)(c1ccccc1)c1ccccc1` (stereo not given) [METHADONE], the Phospholipidosis result is given as “Negative”. Regarding `CN(Cc1cnc2nc(N)nc(N)c2n1)c1ccc(C(=O)N[C@@H](CCC(=O)O)C(=O)O)cc1` [METHOTREXATE], the Phospholipidosis result is given as “Negative”. To `C[C@](N)(Cc1ccc(O)c(O)c1)C(=O)O` [METHYLDOPA] belongs “Negative”. Turning to `CN1CCN2c3ccccc3Cc3ccccc3C2C1` (stereo not given) [MIANSERIN], the Phospholipidosis result was “Positive”.

In the case of `CCN[C@@H]1C[C@H](N)[C@@H](O[C@H]2OC(CN)=CC[C@H]2N)[C@H](O)[C@H]1O[C@H]1OC[C@](C)(O)[C@H](NC)[C@H]1O` [NETILMICIN], the Phospholipidosis result is “Positive”. The same measure for `Clc1ccc(C(c2ccccc2)N2CCNCC2)cc1` (stereo not given) [NORCHLORCYCLIZINE]: “Positive”; for `CNCCC=C1c2ccccc2CCc2ccccc21` [NORTRIPTYLINE]: “Positive”; for `CN(C)CCON=C1c2ccccc2CCc2ccccc21` [NOXIPTILINE]: “Positive”. The same measure for `CC1COc2c(N3CCN(C)CC3)c(F)cc3c(=O)c(C(=O)O)cn1c23` (stereo not given) [OFLOXACIN]: “Negative”; for `NCCc1cc(O)c(O)cc1O` [OXIDOPAMINE]: “Positive”; for `C1CCC(C(CC2CCCCN2)C2CCCCC2)CC1` (stereo not given) [PERHEXILINE]: “Positive”. Consider `CCOc1ccc(NC(C)=O)cc1` [PHENACETIN], for which the Phospholipidosis entry is given as “Positive”.

For `CCC1(c2ccccc2)C(=O)NC(=O)NC1=O` [PHENOBARBITAL], the Phospholipidosis entry is reported as “Negative”. Consider `CC(C)(N)Cc1ccccc1` [PHENTERMINE], for which the Phospholipidosis entry is reported as “Positive”. As to `CNC(=O)Oc1ccc2c(c1)[C@]1(C)CCN(C)[C@@H]1N2C` [PHYSOSTIGMINE], the Phospholipidosis result is recorded as “Negative”. Turning to `Cc1cccc(Nc2cc(Cl)nc(SCC(=O)O)n2)c1C` [PIRINIXIC ACID], the Phospholipidosis entry was “Negative”. The same measure for `CN1C(C(=O)Nc2ccccn2)=C(O)c2ccccc2S1(=O)=O` [PIROXICAM]: “Negative”.

As to `CC(Cc1ccccc1)NCCC(c1ccccc1)c1ccccc1` (stereo not given) [PRENYLAMINE], the Phospholipidosis entry is “Positive”.

As to `CCN(CC)CCNC(=O)c1ccc(N)cc1` [PROCAINAMIDE], the Phospholipidosis entry is “Negative”. `CCN(CC)CCOC(=O)c1ccc(N)cc1` [PROCAINE]: the Phospholipidosis entry is on record as “Negative”. Take `CN(C)CCCN1c2ccccc2Sc2ccccc21` [PROMAZINE]: the Phospholipidosis result is “Positive”.

With `CC(CN1c2ccccc2Sc2ccccc21)N(C)C` (stereo not given) [PROMETHAZINE], the Phospholipidosis entry is given as “Positive”. On to `CC(C)NCC(O)COc1cccc2ccccc12` (stereo not given) [PROPRANOLOL], for which the Phospholipidosis result is on record as “Positive”. As for `CCN(CC)CCCC(C)Nc1c2ccc(Cl)cc2nc2ccc(OC)cc12` (stereo not given) [QUINACRINE], the Phospholipidosis entry is recorded as “Positive”. To `C=C[C@H]1C[N@@]2CC[C@H]1C[C@@H]2[C@@H](O)c1ccnc2ccc(OC)cc12` [QUINIDINE] belongs “Positive”. Regarding `CO[C@H]1/C=C/O[C@@]2(C)Oc3c(C)c(O)c4c(O)c(c(/C=N/N5CCN(C)CC5)c(O)c4c3C2=O)NC(=O)/C(C)=C\C=C\[C@H](C)[C@H](O)[C@@H](C)[C@@H](O)[C@@H](C)[C@H](OC(C)=O)[C@@H]1C` [RIFAMPIN], the Phospholipidosis entry is listed as “Negative”. For `CN(C)[C@@H]1C(O)=C(C(=O)NCN2CCCC2)C(=O)[C@@]2(O)C(O)=C3C(=O)c4c(O)cccc4[C@@](C)(O)[C@H]3C[C@@H]12` [ROLITETRACYCLINE], the Phospholipidosis entry was “Negative”.

Turning to `CN[C@H]1CC[C@@H](c2ccc(Cl)c(Cl)c2)c2ccccc21` [SERTRALINE], the Phospholipidosis result was “Positive”.

For the compound `CC(C)NCC(O)c1ccc(NS(C)(=O)=O)cc1` (stereo not given) [SOTALOL], the Phospholipidosis result is “Negative”. For the compound `CN[C@@H]1[C@H](O)[C@H](NC)[C@H]2O[C@@]3(O)C(=O)C[C@@H](C)O[C@H]3O[C@@H]2[C@H]1O` [SPECTINOMYCIN], the Phospholipidosis entry is on record as “Positive”. Take `Cc1cn([C@H]2C=C[C@@H](CO)O2)c(=O)[nH]c1=O` [STAVUDINE]: the Phospholipidosis result is reported as “Negative”.

On to `N=C(N)c1ccc(/C=C/c2ccc(C(=N)N)cc2)cc1` [STILBAMIDINE], for which the Phospholipidosis entry is given as “Positive”.

As to `Cc1cc(NS(=O)(=O)c2ccc(N)cc2)no1` [SULFAMETHOXAZOLE], the Phospholipidosis result was “Negative”. Regarding `Cc1ccc(C(=O)Nc2ccc(S(=O)(=O)O)c3cc(S(=O)(=O)O)cc(S(=O)(=O)O)c23)cc1NC(=O)c1cccc(NC(=O)Nc2cccc(C(=O)Nc3cc(C(=O)Nc4ccc(S(=O)(=O)O)c5cc(S(=O)(=O)O)cc(S(=O)(=O)O)c45)ccc3C)c2)c1` [SURAMIN], the Phospholipidosis entry is given as “Positive”. As for `N=C(N)NCCCCCCCCCCNC(=N)N` [SYNTHALIN], the Phospholipidosis result was “Negative”. In the case of `Nc1c2c(nc3ccccc13)CCCC2` [TACRINE], the Phospholipidosis entry is “Negative”. Regarding `CC/C(=C(\c1ccccc1)c1ccc(OCCN(C)C)cc1)c1ccccc1` [TAMOXIFEN], the Phospholipidosis result is “Positive”.

`Cn1nnc2c(C(N)=O)ncn2c1=O` [TEMOZOLOMIDE]: the Phospholipidosis entry was “Negative”.

Consider `CN(C)[C@@H]1C(O)=C(C(N)=O)C(=O)[C@@]2(O)C(O)=C3C(=O)c4c(O)cccc4[C@@](C)(O)[C@H]3C[C@@H]12` [TETRACYCLINE], for which the Phospholipidosis entry is reported as “Negative”. Regarding `CC(=N)S` [THIOACETAMIDE], the Phospholipidosis entry is on record as “Negative”. `CSc1ccc2c(c1)N(CCC1CCCCN1C)c1ccccc1S2` (stereo not given) [THIORIDAZINE]: the Phospholipidosis result was “Positive”. Take `CCN(CC)CCOc1ccc2c(c1)C(=O)c1cc(OCCN(CC)CC)ccc1-2` [TILORONE]: the Phospholipidosis result was “Positive”. For the compound `NC[C@H]1O[C@H](O[C@H]2[C@H](O)[C@@H](O[C@H]3O[C@H](CO)[C@@H](O)[C@H](N)[C@H]3O)[C@H](N)C[C@@H]2N)[C@H](N)C[C@@H]1O` [TOBRAMYCIN], the Phospholipidosis result is on record as “Positive”. In the case of `CC(CN(C)C)CN1c2ccccc2CCc2ccccc21` (stereo not given) [TRIMIPRAMINE], the Phospholipidosis result is “Positive”. On to `CCN(CC)CCOc1ccc(C(O)(Cc2ccc(Cl)cc2)c2ccc(C)cc2)cc1` (stereo not given) [TRIPARANOL], for which the Phospholipidosis result is given as “Positive”. Consider `CN(C)CCN(Cc1ccccc1)c1ccccn1` [TRIPELENNAMINE], for which the Phospholipidosis entry is on record as “Positive”.
